“And” between values parts separate entries of the source, which are not always exact repeats. Equal values may be shown once.
Legend:
[1] = biological target: T1, mutEGFR (D770_N771insSVD) (Homo sapiens, UniProt P00533, DUP768-770); test: Exon20-Mutant-EGFR (D770_N771insSVD) kinase assay (TR-FRET); format: biochemical
T1 construct: GST-EGFR #3 (SVD between D770 and N771); made in house; host or cells: Sf9 insect cells (baculovirus)

[2] = biological target: T2, mutEGFR (D770_N771insNPG, T790) (Homo sapiens, UniProt P00533, INS770NPG/T790M); test: mutEGFR (D770_N771insNPG, T790) kinase assay; format: biochemical
T2 construct: exact insNPG construct not described; in-house EGFR proteins were N-terminal GST fusions from baculovirus/insect cells (borders R669-A1210 given only for WT, insSVD, insASV)
T2 sequence (P00533 with tags, fused parts or gaps INS770NPG/T790M limits assumed): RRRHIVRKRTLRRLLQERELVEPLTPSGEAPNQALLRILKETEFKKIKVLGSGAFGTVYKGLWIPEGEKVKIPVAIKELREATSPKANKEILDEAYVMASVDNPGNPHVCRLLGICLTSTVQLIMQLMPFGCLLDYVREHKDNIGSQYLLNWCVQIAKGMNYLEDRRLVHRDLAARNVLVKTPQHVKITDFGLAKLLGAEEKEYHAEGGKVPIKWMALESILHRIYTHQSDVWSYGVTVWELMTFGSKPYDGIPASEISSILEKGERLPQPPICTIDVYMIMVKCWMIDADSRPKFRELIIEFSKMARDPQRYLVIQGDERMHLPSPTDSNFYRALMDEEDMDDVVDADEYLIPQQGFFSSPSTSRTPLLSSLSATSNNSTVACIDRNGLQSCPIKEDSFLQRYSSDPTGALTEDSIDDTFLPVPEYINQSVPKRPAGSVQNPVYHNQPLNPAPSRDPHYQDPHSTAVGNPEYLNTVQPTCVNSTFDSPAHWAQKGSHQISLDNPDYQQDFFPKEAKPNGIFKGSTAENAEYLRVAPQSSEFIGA
Excerpt: The different EGFR proteins used in the biochemical kinase activity inhibition assays were generated inhouse by expression in insect cells using Baculo Virus system and subsequent purification as described in the following paragraphs.
The cDNAs encoding the various protein sequences from human EGFR human (P00533) were optimized for expression in eukaryotic cells and synthesized by the GeneArt Technology at Life Technologies.

BA/F3 (insSVD) cells = test: Ba/F3-EGFR-insSVD cell survival assay (Cell Titer-Glo); format: cell-based
In short: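 CellTiter-Glo luminescence read after 48 h compound exposure at 37° C. Cells: IL-3-independent Ba/F3 lines transduced with EGFR-insSVD or EGFR-insSVD T790M, maintained on 10 ng/ml EGF and seeded at 4000 per well.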

[3] = mutEGFR (D770_N771insSVD) kinase assay IC50, Table 2a, D770_N771insSVD, 2 mM ATP
[4] = Mus musculus, BaF3, 48 h, Table 3a, cell survival, Cell Titer-Glo, with 10 ng/ml EGF, without IL-3

T1 sequence (P00533 with tags, fused parts or gaps DUP768-770): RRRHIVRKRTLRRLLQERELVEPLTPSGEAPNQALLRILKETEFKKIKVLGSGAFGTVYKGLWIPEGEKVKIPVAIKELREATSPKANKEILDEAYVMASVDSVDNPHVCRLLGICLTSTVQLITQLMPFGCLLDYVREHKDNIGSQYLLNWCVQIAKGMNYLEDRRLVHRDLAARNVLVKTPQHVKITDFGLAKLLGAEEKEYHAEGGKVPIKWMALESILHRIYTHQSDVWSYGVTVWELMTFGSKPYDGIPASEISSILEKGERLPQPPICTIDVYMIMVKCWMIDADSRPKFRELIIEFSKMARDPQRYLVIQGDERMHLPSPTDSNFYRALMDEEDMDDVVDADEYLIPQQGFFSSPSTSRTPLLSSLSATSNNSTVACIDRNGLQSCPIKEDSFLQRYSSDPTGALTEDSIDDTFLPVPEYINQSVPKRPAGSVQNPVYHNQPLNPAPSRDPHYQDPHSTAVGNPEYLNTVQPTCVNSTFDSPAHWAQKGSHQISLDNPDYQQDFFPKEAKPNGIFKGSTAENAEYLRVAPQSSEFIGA

Compound | IC50 [1, 3] | IC50 ([2]; Table 2a, D770_N771insNPG) [nM] | IC50 ([1]; mutEGFR (D770_N771insSVD) kinase assay IC50, Table 2b (from US Priority Patent Application), mutEGFR D770_N771insSVD) [nM] | IC50 ([2]; Table 2b (from US Priority Patent Application), mutEGFR D770_N771insNPG) [nM] | IC50 (BA/F3 (insSVD) cells; [4]) [nM] | IC50 (BA/F3 (insSVD) cells; Table 3a, cell survival, Cell Titer-Glo, with 10 ng/ml EGF, without IL-3, 48 h) [nM] | IC50 (BA/F3 (insSVD) cells; Mus musculus, BaF3, 48 h, Table 3b, Ba/F3 EGFR-insSVD) [nM]
O=C(/C=C/CN1CCCC1)N1CCn2nc(-c3ccc(F)cc3)c(-c3ccncc3)c2C1 [Example 79, (2E)-1-[2-(4-fluorophenyl)-3-(pyridin-4-yl)-6,7-dihydropyrazolo[1,5-a]pyrazin-5(4H)-yl]-4-(pyrrolidin-1-yl) but-2-en-1-one] | 1.47 nM | 2.51 | – | – | 62.9 | – | –
Cc1c[nH]c2nccc(-c3c(-c4cccc(Cl)c4)nn4c3CN(C(=O)/C=C/CN(C)C)CC4)c12 [Example 184, (2E)-1-[2-(3-chlorophenyl)-3-(3-methyl-1H-pyrrolo[2,3-b]pyridin-4-yl)-6,7-dihydropyrazolo[1,5-a]pyrazin-5(4H)-yl]-4-(dimethylamino)but-2-en-1-one] | 155 nM | 52.8 | – | – | 56.6 | – | –
C=CC(=O)N1CCn2nc(-c3ccc(C(F)(F)F)cc3)c(-c3ccnc4[nH]cc(C)c34)c2C1 [Example 48, 1-[3-(3-methyl-1H-pyrrolo[2,3-b]pyridin-4-yl)-2-[4-(trifluoromethyl)phenyl]-6,7-dihydropyrazolo[1,5-a]pyrazin-5(4H)-yl]prop-2-en-1-one] | 242 nM | 1270 | – | – | 90.5 | – | –
CN(C)C/C=C/C(=O)N1CCn2nc(-c3ccccc3Cl)c(-c3ccncc3)c2C1 [Example 154, (2E)-1-[2-(2-chlorophenyl)-3-(pyridin-4-yl)-6,7-dihydropyrazolo[1,5-a]pyrazin-5(4H)-yl]-4-(dimethylamino)but-2-en-1-one] | 3.48 nM | 27.5 | – | – | 2850 | – | –
C=CC(=O)N1CCn2nc(-c3ccc(C)cc3O)c(-c3ccncc3)c2C1 [Example 113, 1-[2-(2-hydroxy-4-methylphenyl)-3-(pyridin-4-yl)-6,7-dihydropyrazolo[1,5-a]pyrazin-5(4H)-yl]prop-2-en-1-one] | 1.76 nM | 3.91 | – | – | 55.5 | – | –
O=C(/C=C/CF)N1CCn2nc(-c3ccc(F)cc3)c(-c3ccncc3)c2C1 [Example 78, (2E)-4-fluoro-1-[2-(4-fluorophenyl)-3-(pyridin-4-yl)-6,7-dihydropyrazolo[1,5-a]pyrazin-5(4H)-yl]but-2-en-1-one] | 3.86 nM | 15.4 | – | – | 115 | – | –
Cc1c[nH]c2nccc(-c3c(-c4cccc(C#N)c4)nn4c3CN(C(=O)/C=C/CN(C)C)CC4)c12 [Example 61, 3-{5-[(2E)-4-(dimethylamino)but-2-enoyl]-3-(3-methyl-1H-pyrrolo[2,3-b]pyridin-4-yl)-4,5,6,7-tetrahydropyrazolo[1,5-a]pyrazin-2-yl}benzonitrile] | 2380 nM | 398 | – | – | 922 | – | –
C=CC(=O)N1CCn2nc(-c3ccc(OC)c(F)c3)c(-c3ccnc4[nH]cc(C)c34)c2C1 [Example 46, 1-[2-(3-fluoro-4-methoxyphenyl)-3-(3-methyl-1H-pyrrolo[2,3-b]pyridin-4-yl)-6,7-dihydropyrazolo[1,5-a]pyrazin-5(4H)-yl]prop-2-en-1-one] | 770 nM | 555 | – | – | 170 | – | –
Cc1cc(-c2nn3c(c2-c2ccncc2)CN(C(=O)/C=C/CN(C)C)CC3(C)C)ccc1Cl [Example 214, (2E)-1-[2-(4-chloro-3-methylphenyl)-7,7-dimethyl-3-(pyridin-4-yl)-6,7-dihydropyrazolo[1,5-a]pyrazin-5(4H)-yl]-4-(dimethylamino)but-2-en-1-one] | 0.272 nM | 0.654 | – | – | 69 | – | –
C=CC(=O)N1Cc2c(-c3ccncc3)c(-c3ccc(Cl)c(C)c3)nn2C(C)(C)C1 [Example 208, 1-[2-(4-chloro-3-methylphenyl)-7,7-dimethyl-3-(pyridin-4-yl)-6,7-dihydropyrazolo[1,5-a]pyrazin-5(4H)-yl]prop-2-en-1-one] | 0.14 nM | 0.365 | – | – | 15.8 | – | –
NC1(C#CC(=O)N2CCn3nc(-c4ccc(F)cc4)c(-c4ccncc4)c3C2)CC1 [Example 89, 3-(1-aminocyclopropyl)-1-[2-(4-fluorophenyl)-3-(pyridin-4-yl)-6,7-dihydropyrazolo[1,5-a]pyrazin-5(4H)-yl]prop-2-yn-1-one] | 6.06 nM | 8.7 | – | – | 5060 | – | –
CN(C)C/C=C/C(=O)N1Cc2c(-c3ccncc3)c(-c3ccc(F)cc3)nn2C(CCO)C1 (racemic) [Example 219, rac-(R,E)-4-(dimethylamino)-1-(2-(4-fluorophenyl)-7-(2-hydroxyethyl)-3-(pyridin-4-yl)-6,7-dihydropyrazolo[1,5-a]pyrazin-5(4H)-yl) but-2-en-1-one] | 0.715 nM | 1.21 | – | – | 308 | – | –
C=CC(=O)N1CCn2nc(-c3ccc(C)cc3F)c(-c3ccnc4[nH]ccc34)c2C1 [Example 102, 1-[2-(2-fluoro-4-methylphenyl)-3-(1H-pyrrolo[2,3-b]pyridin-4-yl)-6,7-dihydropyrazolo[1,5-a]pyrazin-5(4H)-yl]prop-2-en-1-one] | 4.77 nM | 22.8 | – | – | 49.8 | – | –
CN(C)C/C=C/C(=O)N1Cc2c(-c3ccncc3)c(-c3ccc(F)cc3)nn2C(CO)C1 (racemic) [Example 201, rac-(R,E)-4-(dimethylamino)-1-(2-(4-fluorophenyl)-7-(hydroxymethyl)-3-(pyridin-4-yl)-6,7-dihydropyrazolo[1,5-a]pyrazin-5(4H)-yl) but-2-en-1-one] | 1.67 nM | 3.42 | – | – | 423 | – | –
CN(C)C/C=C/C(=O)N1CCn2nc(-c3ccc4sccc4c3)c(-c3ccncc3)c2C1 [Example 196, (2E)-1-[2-(1-benzothiophen-5-yl)-3-(pyridin-4-yl)-6,7-dihydropyrazolo[1,5-a]pyrazin-5(4H)-yl]-4-(dimethylamino)but-2-en-1-one] | 0.183 nM | 0.421 | – | – | 40.4 | – | –

Further lines, with some results ahead:

IC50 [1, 3] | IC50 ([2]; Table 2a, D770_N771insNPG) [nM] | IC50 ([1]; mutEGFR (D770_N771insSVD) kinase assay IC50, Table 2b (from US Priority Patent Application), mutEGFR D770_N771insSVD) [nM] | IC50 ([2]; Table 2b (from US Priority Patent Application), mutEGFR D770_N771insNPG) [nM] | Compound | IC50 (BA/F3 (insSVD) cells; [4]) [nM] | IC50 (BA/F3 (insSVD) cells; Table 3a, cell survival, Cell Titer-Glo, with 10 ng/ml EGF, without IL-3, 48 h) [nM] | IC50 (BA/F3 (insSVD) cells; Mus musculus, BaF3, 48 h, Table 3b, Ba/F3 EGFR-insSVD) [nM]
0.232 nM | 0.644 | – | – | CC1c2c(-c3ccncc3)c(-c3ccc(Cl)cc3F)nn2CCN1C(=O)/C=C/CN(C)C (single isomer, unassigned; isomer 1) [Example 285, (2E)-1-[2-(4-chloro-2-fluorophenyl)-4-methyl-3-(pyridin-4-yl)-6,7-dihydropyrazolo[1,5-a]pyrazin-5(4H)-yl]-4-(dimethylamino)but-2-en-1-one (isomer 1)] | – | 42 | –
0.729 nM | 1.08 | 0.729 | 1.08 | CN(C)C/C=C/C(=O)N1CCn2nc(-c3ccc(F)cc3)c(-c3ccncc3)c2C1 [Example 15, (2E)-4-(dimethylamino)-1-[2-(4-fluorophenyl)-3-(pyridin-4-yl)-6,7-dihydropyrazolo[1,5-a]pyrazin-5(4H)-yl]but-2-en-1-one] | 86.9 | – | 86.9
6.99 nM | 933 | – | – | C=CC(=O)N1CCn2nc(-c3ccc(C(F)(F)F)cc3)c(-c3ccnc4[nH]ccc34)c2C1C (single isomer, unassigned; isomer 2) [Example 247, 1-(4-methyl-3-(1H-pyrrolo[2,3-b]pyridin-4-yl)-2-(4-(trifluoromethyl)phenyl)-6,7-dihydropyrazolo[1,5-a]pyrazin-5(4H)-yl) prop-2-en-1-one (isomer 2)] | 134 | – | –
87.2 nM | 222 | – | – | COC/C=C/C(=O)N1CCn2nc(-c3ccc(F)cc3)c(-c3ccncc3)c2C1 [Example 66, (2E)-1-[2-(4-fluorophenyl)-3-(pyridin-4-yl)-6,7-dihydropyrazolo[1,5-a]pyrazin-5(4H)-yl]-4-methoxybut-2-en-1-one] | 1750 | – | –
< 0.0725 nM and 0.0955 nM and 0.111 nM | 0.153 | – | – | C=CC(=O)N1Cc2c(-c3ccncc3)c(-c3ccc4sccc4c3)nn2C[C@H]1C [Example 277, 1-[(6R)-2-(1-benzothiophen-5-yl)-6-methyl-3-(pyridin-4-yl)-6,7-dihydropyrazolo[1,5-a]pyrazin-5(4H)-yl]prop-2-en-1-one] | 2.77 | – | –
1.39 nM | 4.74 | – | – | C=CC(=O)N1CCn2nc(-c3ccc(F)cc3)c(-c3ccncc3)c2C1C (racemic) [Example 239, 1-[(RS)-2-(4-fluorophenyl)-4-methyl-3-(pyridin-4-yl)-6,7-dihydropyrazolo[1,5-a]pyrazin-5(4H)-yl]prop-2-en-1-one] | 38.7 | – | –
3.88 nM | 12.3 | – | – | C=CC(=O)N1CCn2nc(-c3ccc(OC)cc3)c(-c3ccncc3)c2C1C (racemic) [Example 241, 1-[(RS)-2-(4-methoxyphenyl)-4-methyl-3-(pyridin-4-yl)-6,7-dihydropyrazolo[1,5-a]pyrazin-5(4H)-yl]prop-2-en-1-one] | 77.1 | – | –
12.5 nM | 40.5 | – | – | C=CC(=O)N1Cc2c(-c3ccncc3)c(-c3ccc(Cl)cc3)nn2CC1(C)C [Example 211, 1-[2-(4-chlorophenyl)-6,6-dimethyl-3-(pyridin-4-yl)-6,7-dihydropyrazolo[1,5-a]pyrazin-5(4H)-yl]prop-2-en-1-one] | 378 | – | –

— patent US20260365653A1, “IRREVERSIBLE MUTEGFR INHIBITORS” (Bayer Aktiengesellschaft, priority 2022, published 2026)
